How the values were obtained:
Format in all cases: ADME
Liver microsome = experiment: Drug metabolism in human liver microsomes assessed as 17-hydroexemestane formation after 10 mins by Michaelis-Menten saturation curve analysis
Cytochrome P450 3A4 = Cytochrome P450 3A4 (Homo sapiens, UniProt P08684); experiment: Drug metabolism assessed as human recombinant CYP3A4-mediated 17-hydroexemestane formation rate per pmol of enzyme at 10 uM after 10 mins
Cytochrome P450 2B6 = target: T1, Cytochrome P450 2B6 (Homo sapiens, UniProt P20813); experiment: Drug metabolism assessed as human recombinant CYP2B6-mediated 17-hydroexemestane formation rate per pmol of enzyme at 10 uM after 10 mins
T1 sequence (P20813 whole entry): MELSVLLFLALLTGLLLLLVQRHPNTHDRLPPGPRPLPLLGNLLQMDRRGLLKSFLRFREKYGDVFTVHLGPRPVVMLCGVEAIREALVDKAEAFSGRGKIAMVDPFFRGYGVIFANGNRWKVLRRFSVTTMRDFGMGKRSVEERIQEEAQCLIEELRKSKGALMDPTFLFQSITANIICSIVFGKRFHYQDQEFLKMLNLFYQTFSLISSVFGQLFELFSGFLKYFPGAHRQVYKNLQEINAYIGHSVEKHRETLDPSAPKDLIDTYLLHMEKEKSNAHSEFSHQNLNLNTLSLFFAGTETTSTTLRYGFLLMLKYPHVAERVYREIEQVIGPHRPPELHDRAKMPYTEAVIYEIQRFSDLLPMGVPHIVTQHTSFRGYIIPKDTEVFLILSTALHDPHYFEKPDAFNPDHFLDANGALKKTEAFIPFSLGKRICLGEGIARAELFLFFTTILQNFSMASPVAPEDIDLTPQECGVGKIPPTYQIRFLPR

Cytochrome P450 2A6 = target: T2, Cytochrome P450 2A6 (Homo sapiens, UniProt P11509); experiment: Drug metabolism assessed as human recombinant CYP2A6-mediated 17-hydroexemestane formation rate per pmol of enzyme at 10 uM after 10 mins
T2 sequence (P11509 whole entry): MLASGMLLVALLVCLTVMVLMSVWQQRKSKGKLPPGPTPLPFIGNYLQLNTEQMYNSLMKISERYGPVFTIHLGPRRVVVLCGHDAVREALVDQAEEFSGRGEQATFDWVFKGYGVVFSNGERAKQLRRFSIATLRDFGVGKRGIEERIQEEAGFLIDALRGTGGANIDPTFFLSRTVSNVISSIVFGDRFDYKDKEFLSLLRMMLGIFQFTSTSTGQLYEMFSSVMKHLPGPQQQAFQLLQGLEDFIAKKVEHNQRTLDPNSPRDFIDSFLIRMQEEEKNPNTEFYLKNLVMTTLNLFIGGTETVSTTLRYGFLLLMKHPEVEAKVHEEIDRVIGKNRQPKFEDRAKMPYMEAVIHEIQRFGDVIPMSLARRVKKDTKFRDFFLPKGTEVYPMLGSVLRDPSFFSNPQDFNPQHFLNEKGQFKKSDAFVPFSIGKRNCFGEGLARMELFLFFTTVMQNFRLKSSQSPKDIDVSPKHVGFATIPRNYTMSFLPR

Cytochrome P450 4A11 = target: T3, Cytochrome P450 4A11 (Homo sapiens, UniProt Q02928); experiment: Drug metabolism assessed as human recombinant CYP4A11-mediated 17-hydroexemestane formation rate per pmol of enzyme at 10 uM after 10 mins
T3 sequence (Q02928 whole entry): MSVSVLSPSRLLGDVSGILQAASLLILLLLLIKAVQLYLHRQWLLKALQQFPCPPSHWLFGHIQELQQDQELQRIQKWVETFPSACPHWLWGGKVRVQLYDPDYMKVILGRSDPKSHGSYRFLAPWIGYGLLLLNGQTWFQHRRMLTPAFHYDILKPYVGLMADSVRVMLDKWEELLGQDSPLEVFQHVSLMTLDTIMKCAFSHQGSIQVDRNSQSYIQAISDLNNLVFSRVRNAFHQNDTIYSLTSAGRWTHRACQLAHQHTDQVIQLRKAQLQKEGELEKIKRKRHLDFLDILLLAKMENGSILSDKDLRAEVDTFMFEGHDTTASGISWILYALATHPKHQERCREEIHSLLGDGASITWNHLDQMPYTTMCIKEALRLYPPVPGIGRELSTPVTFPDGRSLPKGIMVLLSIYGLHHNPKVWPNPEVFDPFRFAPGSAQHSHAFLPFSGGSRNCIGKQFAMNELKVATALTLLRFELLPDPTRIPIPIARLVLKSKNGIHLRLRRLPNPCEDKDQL

Cytochrome P450 2C19 = Cytochrome P450 2C19 (Homo sapiens, UniProt P33261); experiment: Drug metabolism assessed as human recombinant CYP2C19-mediated 17-hydroexemestane formation rate per pmol of enzyme at 10 uM after 10 mins
Sequence of Cytochrome P450 2C19 (P33261 whole entry): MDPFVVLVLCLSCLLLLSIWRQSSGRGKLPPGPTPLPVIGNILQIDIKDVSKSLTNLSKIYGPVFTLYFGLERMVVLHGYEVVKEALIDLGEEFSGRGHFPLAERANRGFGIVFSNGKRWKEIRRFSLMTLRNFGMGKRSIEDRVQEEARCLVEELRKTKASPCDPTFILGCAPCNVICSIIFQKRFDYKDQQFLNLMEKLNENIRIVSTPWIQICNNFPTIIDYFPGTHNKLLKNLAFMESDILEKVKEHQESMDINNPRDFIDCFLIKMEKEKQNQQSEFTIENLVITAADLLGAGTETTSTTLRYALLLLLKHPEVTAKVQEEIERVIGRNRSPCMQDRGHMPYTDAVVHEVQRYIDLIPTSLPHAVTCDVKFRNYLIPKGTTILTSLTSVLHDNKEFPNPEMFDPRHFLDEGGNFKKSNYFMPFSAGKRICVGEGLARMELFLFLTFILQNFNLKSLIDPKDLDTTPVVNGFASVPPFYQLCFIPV

Sequence of Cytochrome P450 3A4 (P08684 whole entry): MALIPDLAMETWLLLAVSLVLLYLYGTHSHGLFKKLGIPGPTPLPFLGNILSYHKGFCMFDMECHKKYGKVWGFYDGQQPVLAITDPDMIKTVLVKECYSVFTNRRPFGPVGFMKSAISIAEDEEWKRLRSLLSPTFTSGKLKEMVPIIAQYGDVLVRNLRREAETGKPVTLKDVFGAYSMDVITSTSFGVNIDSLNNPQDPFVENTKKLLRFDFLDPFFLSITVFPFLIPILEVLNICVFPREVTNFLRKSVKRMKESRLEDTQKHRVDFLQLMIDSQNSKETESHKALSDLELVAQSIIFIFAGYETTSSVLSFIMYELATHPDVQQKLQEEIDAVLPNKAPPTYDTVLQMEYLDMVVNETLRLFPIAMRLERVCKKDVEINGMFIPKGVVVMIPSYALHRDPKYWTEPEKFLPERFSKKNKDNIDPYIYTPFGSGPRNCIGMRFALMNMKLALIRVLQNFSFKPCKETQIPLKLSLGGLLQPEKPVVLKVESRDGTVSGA

Compound: C=C1C[C@@H]2[C@H](CC[C@]3(C)C(O)CC[C@@H]23)[C@@]2(C)C=CC(=O)C=C12 (some centres not stated)
- Vmax(app) (Liver microsome): 222.4 pmol/mg/min
- Km (Liver microsome; read-out: Km(app)): 13.7 µM
- Drug metabolism (Cytochrome P450 3A4): 0.17 pmol/min
- Drug metabolism (Cytochrome P450 2B6): 0.3 pmol/min
- Drug metabolism (Cytochrome P450 2A6): 0.51 pmol/min
- Drug metabolism (Cytochrome P450 4A11): 0.48 pmol/min
- Drug metabolism (Cytochrome P450 2C19): metabolite_not_detected

Source: ChEMBL document CHEMBL3525953, “In vitro cytochrome P450-mediated metabolism of exemestane” (Drug Metab Dispos, 2011)
